Source: patent US5286860A (priority 1992, dated 1994)

Biological target: GABAa receptor
Assay: GABAa receptor binding assay: inhibition of 3H-RO15-1788 (3H-Flumazenil) binding to rat cortical tissue
Details: 0.5 nM 3H-RO15-1788, 30 min at 4° C., nonspecific binding with 1.0 μM diazepam
Protocol: The pharmaceutical utility of compounds of this invention are indicated by the following assay for GABAa receptor activity.
Assays are carried out as described in Thomas and Tallman (J. Bio. Chem. 156: 9838-9842, J. Neurosci. 3:433-440, 1983). Rat cortical tissue is dissected and homogenized in 25 volumes (w/v) of 0.05M Tris HCl buffer (pH 7.4 at 4° C.). The tissue homogenate is centrifuged in the cold (4°) at 20,000×g for 20'. The supernatant is decanted and the pellet is rehomogenized in the same volume of buffer and again centrifuged at 20,000×g. The supernatant is decanted and the pellet is frozen at -20° C. overnight. The pellet is then thawed and rehomogenized in 25 volume (original wt/vol) of buffer and the procedure is carried out twice. The pellet is finally resuspended in 50 volumes (w/vol of 0.05M Tris HCl buffer (pH 7.4 at […]).
Incubations contain 100 μl of tissue homogenate, 100 μl of radioligand 0.5 nM (^3 H-RO15-1788 [^3 H-Flumazenil] specific activity 80 Ci/mmol), drug or blocker and buffer to a total volume of 500 μl. Incubations are carried for 30 min at 4° C. then are rapidly filtered through GFB filters to separate free and bound ligand. Filters are washed twice with fresh 0.05M Tris HCl buffer (pH 7.4 at 4° C.) and counted in a liquid scintillation counter. 1.0 μM diazepam is added to some tubes to determine nonspecific binding. Data are collected in triplicate determinations, averaged and % inhibition of total specific binding is calculated. Total Specific Binding=Total-Nonspecific. In some cases, the amounts of unlabeled drugs is varied and total displacement curves of binding are carried out. Data are converted to a form for the calculation of IC50 and Hill Coefficient (nH).

Structure (SMILES) | IC50 [nM]
COc1ccc(F)c(-c2cnc3[nH]c4c(c3n2)CCCC4)c1 [Compound 1, 2-(2-Fluoro-5-methoxyphenyl)-6,7,8,9-tetrahydro-5H-indolo[2,3-b]pyrazine] | 200
Fc1ccccc1-c1cnc2[nH]c3c(c2n1)CCCC3 [Compound 5, 2-(2-Fluorophenyl)-6,7,8,9-tetrahydro-5H-indolo[2,3-b]pyrazine] | 45
COc1ccc(-c2cnc3[nH]c4c(c3n2)CCCC4)c(F)c1 [Compound 11, 2-(2-Fluoro-4-methoxyphenyl)-6,7,8,9-tetrahydro-5H-indolo[2,3-b]pyrazine] | 29
COc1ccc(-c2cnc3[nH]c4ccccc4c3n2)c(F)c1 [Compound 12, 2-(2-Fluoro-4-methoxyphenyl)-5H-indolo[2,3-b]pyrazine] | 533

System: benzodiazepine binding site
Assay: not given
Details: cited from earlier work

Structure (SMILES) | block of GABA-agonist enhancement of benzodiazepine binding
CN1CCc2cc3c(cc2[C@H]1[C@@H]1OC(=O)c2c1ccc1c2OCO1)OCO3 [(+) bicuculline] | blocked
CN1CCc2cc3c(cc2[C@@H]1[C@H]1OC(=O)c2c1ccc1c2OCO1)OCO3 [(-) bicuculline] | much less active
